{"source": "patent US11229635B2", "about": "“Method of treating fibrosis” (BCN Biosciences L.L.C., priority 2016, dated 2022)", "key": {"[1]": {"system": "Lewis lung (LLC) tumors", "assay": "Lewis lung (LLC) artificial metastasis model, lung tumor colonies", "assay_type": "in vivo, C57Bl/6 and C3H mice", "protocol": "One of the major concerns of the Food and Drug Administration for the application of radiation mitigators in RT is that if an agent can protect normal tissue from radiation damage, it may also protect tumor tissues. […] The syngeneic model of artificial metastasis used Lewis lung (LLC) tumors, and since LLC also grow in C3H mice, this could be employed as an allogeneic model. C57B1/6 and C3H mice were injected i.v. with 5×10^4 tumor cells. Subcutaneous drug injections were started on day +3 when the tumors were established in the lung in order to bias the experiment in favor of tumor growth promotion. The dose regimen was arbitrarily assigned to a dose of 20 mg/kg for 5 days. LTI was started on day 4, with 4 Gy doses administered daily for 3 days. This is higher than conventional 2 Gy to compensate for the more rapid growth of murine tumors, but is still well within the range used clinically in hypofractionated therapy."}, "[2]": {"system": "macrophages co-cultured with fibroblasts", "assay": "Macrophage-fibroblast co-culture, CFSE proliferation", "assay_type": "cell-based, mouse", "source_text": "Cell proliferation was used as a sensitive in vitro endpoint because it can also be used to detect cell death. Cells were labeled with the fluorescent dye CF SE, which becomes diluted as the cells proliferate over time. We performed a series of experiments using tumor cell lines to validate the assay and determine the effective ratios of macrophages to target cells (not shown) before performing experiments with normal early-pass murine embryo fibroblasts. To study the effects of BCN-512 and macrophages on fibroblast cell proliferation and death, irradiated (2 or 6 Gy) macrophages and fibroblasts were added at various ratios. Normal mouse fibroblasts were labelled with CF SE and added to the macrophages in 96-well plates. BCN-512 (10 μM) and/or LPS (1 μg/mL) or diluent were then added, and the plates cultured for 1, 2, or 3 days. The purpose of the LPS was to activate the macrophages. BCN-512 was added 1 hour after LPS, which was added immediately after irradiation"}, "[3]": {"assay": "Pharmacokinetic profile after sc injection", "assay_type": "in vivo", "conditions": "mouse, plasma; C57BL/6 male mice, 10 mg/kg sc, low % deoxycholate formulation", "protocol": "FIG. 6A: Pharmacokinetic profile for C57BL/6 male mice receiving a 10 mg/kg sc injection of 512 in a low % deoxycholate formulation.\nBecause the side effects of Cremophor are undesirable for an MCM candidate, alternative formulations are being tested for further development of 512 for the lung DEARE indication."}, "[4]": {"system": "WINT target gene expression", "assay": "Wnt target gene expression", "conditions": "FIG. 23"}, "[5]": {"system": "radiation-induced pneumonitis and lung fibrosis", "assay": "Thoracic lung irradiation: survival, lung histology, fibrosis", "assay_type": "in vivo, mouse", "protocol": "Our goal is to develop a drug to protect lung from ionizing radiation that is administered subcutaneously and has a favorable risk/benefit profile when administered 24 hours or later after radiation exposure. The drug, BCN 512, originally discovered in the UCLA CMCR, is a novel drug that emerged from high-throughput screening of small molecule libraries, and is now under investigation as a radiation injury mitigator. In our efforts to develop the drug as a lung MCM to treat the Delayed Effects of Acute Radiation Exposure (DEARE), we use the C57BL/6 and C3H mouse models. These models appear to recapitulate human lung fibrosis and pneumonitis, respectively, based upon the distinct sensitivity of the two strains (1, 2).\nRadiation fibrosis is a progressive, dose-related, late complication of radiation exposure, with animals and humans surviving for some time with non-lethal damage. […] 512 works by altering the inflammatory infiltrate into the lung.\nA: Lung histology of C57BL/6 mice receiving local thoracic radiation (radiation of the lung area) presenting a focal area of increased cellularity and edema on the upper left quadrant. Adjacent to this is increased cellularity (the lacey patterning). The lower right quadrant, emphysema is present with large clear areas indicating where alveoli have collapsed to present large open areas. B. Histopathology of C57BL/6 mouse lung under identical radiation treatment as A, but also treated with 5 mg/kg BCN512 once per day every 24 hours for 5 doses.\nIn both lobes, significant collapse of alveoli can be seen along with hyper cellularity (dark areas) and pronounced emphysema (large open areas) presenting fibrosis. C, D are separate lobes from the same animal treated identically as above but receiving BCN512 at 5 mg/kg daily for 5 days after 14.5Gy local thoracic radiation."}, "[6]": {"system": "inflammatory peritoneal macrophages", "assay": "Cytokine release by LPS-stimulated inflammatory peritoneal macrophages", "assay_type": "cell-based", "conditions": "stimulation with LPS in vitro", "source_text": "Because of the focus on lung fibrosis, we examined the effects of irradiation on macrophages in terms of their ability to modulate fibroblast responses. […] In addition, BCN-512 blocks the ability of irradiated macrophages to stimulate fibroblast proliferation. The ability of BCN-512 to reprogram macrophages is likely highly relevant to its ability to mitigate radiation induced fibrosis and tissue damage"}, "[7]": {"system": "canonical Wnt-β catenin signaling", "assay": "TCF/LEF luciferase reporter assay in HEK293 cells", "assay_type": "cell-based", "conditions": "28 μM, 24 h, vs vehicle treated cells", "protocol": "LiCl (10 mM) treatment was used as positive control for luciferase activity. Luciferase activity was determined after 24 h using a Dual-Luciferase® Reporter Assay System (Promega) as per manufacturer's protocol. HEK293 cells containing a FOPFlash construct were used as a negative control."}, "[8]": {"system": "radiation dermatitis (erythema, edema)", "assay": "Draize scoring of dermal radiation sites, dermal dosing 10 mg/mL Day 0 to 6", "assay_type": "in vivo", "conditions": "Avg of Days 1-6 and 8"}, "[9]": {"system": "immature myeloid cells", "assay": "Immature myeloid cells after WBI and WTLI", "assay_type": "in vivo", "source_text": "2. […] They co-express CD11b, Ly6G, and Ly6C, and are required for mitigation by BCN-512, at least after WBI."}}, "data": [{"compound": "O=[N+]([O-])c1ccc(S(=O)(=O)N2CCN(c3ccccc3)CC2)cc1", "note": "[BCN512, 1-[(4-nitrobenezene)sulfonyl]-4-phenyl piperazine]", "values": [{"measurement": "lung tumor colony size", "setting": "[1]; both strains, vs control", "result": "smaller in size than control"}, {"measurement": "decrease of the number of lung tumor colonies", "setting": "[1]; day 14, 20 mg/kg sc for 5 days, both C3H and C57 mouse strains, P<0.05", "result": 20, "unit": "%"}, {"measurement": "toxicity of LPS-treated macrophages to fibroblasts", "setting": "[2]; 10 μM, LPS 1 μg/mL, ratios of 20:1 or 25:1", "result": "practically abolished the toxicity associated with LPS treatment"}, {"measurement": "increase of viable fibroblasts by irradiated macrophages", "setting": "[2]; 6 Gy macrophage irradiation, 3 days", "result": "seemed to neutralize this function"}, {"measurement": "Cmax", "setting": "[3]", "result": 132, "unit": "ng/mL"}, {"measurement": "Tmax", "setting": "[3]", "result": 2, "unit": "h"}, {"measurement": "Wnt target gene expression", "setting": "[4]", "result": "induces the WINT target gene expression"}, {"measurement": "lung fibrosis histology", "setting": "[5]; 14.5Gy local thoracic radiation, 5 mg/kg daily for 5 days, Day 120", "result": "Absent are the large lesions and pronounced fibrosis"}, {"measurement": "overall survival from pneumonitis and lung fibrosis", "setting": "[5]; 18 Gy whole thoracic lung irradiation, 5 mg/Kg sc in Cremophor days 1-5, at 90 days and 160", "result": "improved overall survival"}, {"measurement": "lung histopathology", "setting": "[5]; C57BL/6 mice, 14.5Gy local thoracic radiation, 5 mg/kg once per day for 5 doses", "result": "Lung tissue is normal with no evident emphysema or edema or hyper cellularity or immune infiltrate"}, {"measurement": "development of radiation fibrosis (late disease)", "setting": "[5]; after 14 Gy, acute delivery (FIG. 18)", "result": "mitigates against the development of this late disease"}, {"measurement": "inflammatory macrophage content and phenotypic markers in the lung", "setting": "[5]; after LTI, day 150", "result": "decrease in inflammatory macrophage content and phenotypic markers"}, {"measurement": "mature macrophage cell content in lung", "setting": "[5]; day 160 after LTI", "result": "greatly decreased"}, {"measurement": "amount of pro-inflammatory cytokines released", "setting": "[6]", "result": "decreases"}, {"measurement": "luciferase activity", "setting": "[7]", "result": "significantly increased luciferase activity"}, {"measurement": "Average Draize score Edema", "setting": "[8]", "result": 0}, {"measurement": "Average Draize score Edema Site 2", "setting": "[8]", "result": 0}, {"measurement": "Average Draize score Edema Site 3", "setting": "[8]", "result": 0.5714}, {"measurement": "Average Draize score Edema Site 4", "setting": "[8]", "result": 0}, {"measurement": "Average Draize score Edema Site 5", "setting": "[8]", "result": 0.8571}, {"measurement": "Average Draize score Edema Site 6", "setting": "[8]", "result": 0}, {"measurement": "Average Draize score Erythema Site 2", "setting": "[8]", "result": 0.4286}, {"measurement": "Average Draize score Erythema Site 3", "setting": "[8]", "result": 1.429}, {"measurement": "Average Draize score Erythema Site 4", "setting": "[8]", "result": 0.1429}, {"measurement": "Average Draize score Erythema Site 5", "setting": "[8]", "result": 1.571}, {"measurement": "Average Draize score Erythema Site 6", "setting": "[8]", "result": 0.8571}, {"measurement": "number of immature myeloid cells (CD11b, Ly6G, Ly6C)", "setting": "[9]", "result": "greatly increases"}]}]}
